Data taken from ChEMBL document CHEMBL1148010, “Synthesis and biological evaluation of 2beta,3alpha-(substituted phenyl)nortropanes as potential norepinephrine transporter imaging agents” (Bioorg Med Chem Lett, 2007).

Assays:
[1] = target: Serotonin and norepinephrine transporters (SERT/NET) (Homo sapiens, UniProt P31645+P23975); assay: Selectivity of human NET over human SERT expressed in HEK293 cells; format: cell-based
[2] = target: Sodium-dependent noradrenaline transporter (Homo sapiens, UniProt P23975); assay: Displacement of [3H]nisoxetine from human NET expressed in HEK293 cells; format: cell-based
Chain of Sodium-dependent noradrenaline transporter (P23975 whole entry): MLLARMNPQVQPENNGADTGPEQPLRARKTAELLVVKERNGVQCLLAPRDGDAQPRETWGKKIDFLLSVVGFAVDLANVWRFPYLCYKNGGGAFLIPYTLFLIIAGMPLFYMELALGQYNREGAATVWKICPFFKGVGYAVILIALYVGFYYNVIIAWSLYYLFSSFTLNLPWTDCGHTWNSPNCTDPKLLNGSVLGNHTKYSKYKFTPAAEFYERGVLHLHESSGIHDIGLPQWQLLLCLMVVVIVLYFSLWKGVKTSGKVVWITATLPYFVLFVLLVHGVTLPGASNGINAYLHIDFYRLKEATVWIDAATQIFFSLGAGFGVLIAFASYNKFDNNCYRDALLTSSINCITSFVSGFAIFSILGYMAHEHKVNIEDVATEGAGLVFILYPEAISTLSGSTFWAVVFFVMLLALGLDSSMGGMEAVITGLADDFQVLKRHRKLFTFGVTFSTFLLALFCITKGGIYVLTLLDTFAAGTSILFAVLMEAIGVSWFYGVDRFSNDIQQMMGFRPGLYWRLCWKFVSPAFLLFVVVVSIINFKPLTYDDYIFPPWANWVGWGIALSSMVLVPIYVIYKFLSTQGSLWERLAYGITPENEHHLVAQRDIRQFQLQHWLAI

[3] = target: Sodium-dependent dopamine transporter (Homo sapiens, UniProt Q01959); assay: Displacement of [125I]RTI55 from human DAT expressed in HEK293 cells; format: cell-based
Chain of Sodium-dependent dopamine transporter (Q01959 whole entry): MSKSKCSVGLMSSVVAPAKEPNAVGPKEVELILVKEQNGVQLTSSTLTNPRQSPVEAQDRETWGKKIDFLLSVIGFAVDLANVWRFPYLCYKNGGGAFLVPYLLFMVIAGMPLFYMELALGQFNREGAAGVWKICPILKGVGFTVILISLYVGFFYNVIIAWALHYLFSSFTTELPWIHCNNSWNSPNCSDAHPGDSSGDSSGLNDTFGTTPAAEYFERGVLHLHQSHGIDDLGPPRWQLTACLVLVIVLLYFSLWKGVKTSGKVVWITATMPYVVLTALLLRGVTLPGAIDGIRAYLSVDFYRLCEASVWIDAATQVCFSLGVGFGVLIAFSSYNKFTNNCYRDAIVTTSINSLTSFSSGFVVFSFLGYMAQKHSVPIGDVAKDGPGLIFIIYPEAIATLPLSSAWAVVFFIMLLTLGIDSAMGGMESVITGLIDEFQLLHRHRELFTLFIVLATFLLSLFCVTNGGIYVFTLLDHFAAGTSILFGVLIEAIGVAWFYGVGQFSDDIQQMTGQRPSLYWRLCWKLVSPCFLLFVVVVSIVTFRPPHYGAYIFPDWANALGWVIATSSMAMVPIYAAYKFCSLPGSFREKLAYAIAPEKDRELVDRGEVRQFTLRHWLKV

[4] = target: Monoamine transporters; Norepinephrine & dopamine (Homo sapiens, UniProt Q01959+P23975); assay: Selectivity of human NET over human DAT expressed in HEK293 cells; format: cell-based
[5] = target: Sodium-dependent serotonin transporter (Homo sapiens, UniProt P31645); assay: Displacement of [3H]citalopram from human SERT expressed in HEK293 cells; format: cell-based
Chain of Sodium-dependent serotonin transporter (P31645 whole entry): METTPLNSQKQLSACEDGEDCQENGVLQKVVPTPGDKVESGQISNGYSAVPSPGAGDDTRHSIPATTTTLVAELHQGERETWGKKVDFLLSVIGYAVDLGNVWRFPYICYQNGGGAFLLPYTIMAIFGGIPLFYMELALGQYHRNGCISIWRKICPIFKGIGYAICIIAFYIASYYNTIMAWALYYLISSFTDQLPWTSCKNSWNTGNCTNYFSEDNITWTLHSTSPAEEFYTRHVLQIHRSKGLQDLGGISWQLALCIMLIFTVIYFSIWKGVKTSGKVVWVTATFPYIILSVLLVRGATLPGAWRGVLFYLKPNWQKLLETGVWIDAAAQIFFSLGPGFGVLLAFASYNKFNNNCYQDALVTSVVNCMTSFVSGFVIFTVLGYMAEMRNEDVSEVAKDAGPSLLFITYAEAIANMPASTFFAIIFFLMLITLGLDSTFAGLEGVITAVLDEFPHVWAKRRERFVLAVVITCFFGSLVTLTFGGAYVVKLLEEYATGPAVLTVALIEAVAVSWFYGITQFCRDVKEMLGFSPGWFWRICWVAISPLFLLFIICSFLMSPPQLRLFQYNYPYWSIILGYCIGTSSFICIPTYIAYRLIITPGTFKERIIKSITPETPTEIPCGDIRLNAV

[6] = Drug level in Rhesus monkey plasma assessed as unmetabolized fractions at 3 mins; format: ADME, cell-free, Macaca mulatta; conditions: read-out: Activity
[7] = Drug level in Rhesus monkey plasma assessed as unmetabolized fractions at 10 mins; format: ADME, cell-free, Macaca mulatta; conditions: read-out: Activity
[8] = Drug level in Rhesus monkey plasma assessed as unmetabolized fractions at 30 mins; format: ADME, cell-free, Macaca mulatta; conditions: read-out: Activity

| Structure (SMILES) | NET over SERT selectivity ratio [1] | Ki [2] | Ki [3] | NET over DAT selectivity ratio (no unit) [4] | Ki [5] | remaining at 0.05 h [6] | remaining at 10 min [7] | remaining at 0.5 h [8] |
| --- | --- | --- | --- | --- | --- | --- | --- | --- |
| COC(=O)[C@@H]1[C@H]2CC[C@H](C[C@H]1c1ccc(C)cc1)N2 | 28 nM | 4.88 nM | 11.5 nM | 2.3 nM | 136 nM |  |  |  |
| Cc1ccc([C@@H]2C[C@H]3CC[C@@H](N3)[C@H]2C(=O)O[11CH3])cc1F |  |  |  |  |  | 25% | 7.5% | 1.6% |
| COC(=O)[C@@H]1[C@H]2CC[C@H](C[C@H]1c1ccc(C)c(F)c1)N2 | 24 nM | 1.78 nM | 6.42 nM | 3.6 nM | 42.8 nM |  |  |  |
| C=Cc1ccc([C@@H]2C[C@H]3CC[C@@H](N3)[C@H]2C(=O)OC)cc1 | 1.9 nM | 4.67 nM | 10.1 nM | 2.2 nM | 9.04 nM |  |  |  |
| C#Cc1ccc([C@@H]2C[C@H]3CC[C@@H](N3)[C@H]2C(=O)OC)cc1 | 1.8 nM | 1.86 nM | 2.26 nM | 1.2 nM | 3.45 nM |  |  |  |
| COC(=O)[C@@H]1[C@H]2CC[C@H](C[C@H]1c1ccc(I)cc1)N2 | 2.1 nM | 1.98 nM | 2.25 nM | 1.1 nM | 4.16 nM |  |  |  |
